Reference: patent US6677361B2, “Topical formulations for the transdermal delivery of niacin and methods of treating hyperlipidemia” (University of Kentucky Research Foundation, priority 2000, dated 2004)

Tests used:
[1] = system: hairless mice; test: Erythematous response after topical application of nicotinic acid esters to hairless mice; format: in vivo; conditions: for Erythematous Response: topical, 0.5 to 2.0% (wt/wt) in 200 mg lotion daily for one week, hairless mice; for cutaneous vasodilation: topical niacin esters
Method: Female hairless mice (HRS-J. 6-8 weeks old were used.) These were housed in solid bottom cages provided with sterile feed and water […], with a 14:10 light-dark cycle. The nicotinic acid esters of Example 1 were applied with a gloved finger daily to the backs of hairless mice in 200 mg of Vanicream Lite™ skin care lotion (Pharmaceutical Specialties, Inc., containing purified water, white petrolatum, ceteareth alcohol and ceteareth-20, propylene glycol, sorbitol solution, simethicone, glyceryl monostearate, polyethylene glycol monostearate, sorbic acid and BHT) at concentrations in the range of 0.5 to 2.0% (wt/wt) for one week. Control mice received 200 mg of the lotion alone. […] Dorsal and ventral skin samples were immediately frozen in liquid nitrogen and stored at −80° C.

[2] = system: apoB100/CETP double transgenic mice; test: Plasma lipid profiles of apoB100/CETP double transgenic mice, transdermal lauryl niacin ester vs oral niacin, 90 days; format: in vivo
Method: Niacin intake was estimated from the water consumed.
For topical administration, niacin lauryl esters was applied daily to the shaved backs of mice in 200 mg of lotion at concentrations of 1, 2, 5 and 10% (wt/wt) for 13 weeks. Per 25-g mouse, the daily topical doses would be in the range of 34 to 340 mg/kg as niacin. Control mice received equal amounts of the vehicle lotion alone. A lipid analysis was performed as described in Example 4.
Improvement of lipid profiles of apoB100/CETP transgenic mice treated with niacin prodrug. The effect of transdermal delivery of lauryl niacin ester on plasma lipid profiles in a comparison with oral niacin in the apoB100/CETP double transgenic mice for 90 days. A total of six groups of six animals were used in this study. For topical administration, lauryl niacin ester was applied daily to the shaved backs of mice. For oral administration, niacin (sodium salt) was dissolved in the drinking water.

[3] = system: mice; conditions: oral niacin; study not named at the place
Method: Additionally, a plasma lipid analysis was performed by taking fasting (16 h) blood samples of the hairless mice were obtained at the beginning, at 30 days and 60 days from the retroorbital plexus, and at the end of treatment by cardiac puncture. The animals were euthanized by cardiac injection of pentobarbital prior to blood collection. Blood was collected into microfuge tubes containing 10 μl of heparin, plasma separated by centrifugation at 2,000×g for 15 minutes and stored at -80° C. until analysis within 1 week. Total cholesterol, HDL-C and triglycerides were measured enzymatically, using a clinical chemistry analyzer Syncrhon CX7 by Beckman). Female apoB/CETP double transgenic mice (Taconic Biotechnology, Germantown, N.Y.) were divided into 6 groups and housed in groups of 6 animals per. […] For oral administration, niacin (sodium salt) was dissolved in drinking water at a concentration of 0.75% (0.63% as free acid). Niacin intake was estimated from the water consumed. The estimated daily niacin intake was approximately 1,400 mg/kg. The oral dose used was 760 mg/kg/day and the topical dose was 250 mg/kg/day as niacin.

[4] = topical, daily to shaved backs, one-fourth the dose of the oral treatment
[5] = oral, sodium salt in drinking water

| Erythematous Response [1] | Structure (SMILES) | further results |
| --- | --- | --- |
| Yes | COC(=O)c1cccnc1 [1 carbon] |  |
| Yes | CCOC(=O)c1cccnc1 [2 carbons] |  |
| Yes | CCCCOC(=O)c1cccnc1 [4 carbons] |  |
| Yes | CCCCCCOC(=O)c1cccnc1 [6 carbons] |  |
| Yes | CCCCCCCCOC(=O)c1cccnc1 [8 carbons] |  |
| Slight | CCCCCCCCCCOC(=O)c1cccnc1 [10 carbons] | Erythematous Response ([1]; listed as C10 ester): reduced erythematous response |
| No | CCCCCCCCCCCCOC(=O)c1cccnc1 [12 carbons, lauryl nicotinate] | HDL-C elevated by [2, 4]: 8%; LDL-C fraction lowered by [2, 4]: 38%; total cholesterol lowered by [2, 4]: 15%; triglycerides lowered by [2, 4]: 33%; cutaneous vasodilation [1]: no cutaneous vasodilation |
| No | CCCCCCCCCCCCCOC(=O)c1cccnc1 [13 carbons] |  |
| No | CCCCCCCCCCCCCCOC(=O)c1cccnc1 [14 carbons, myristyl nicotinate] | cutaneous vasodilation [1]: no cutaneous vasodilation |
| No | CCCCCCCCCCCCCCCOC(=O)c1cccnc1 [15 carbons] |  |
| No | CCCCCCCCCCCCCCCCOC(=O)c1cccnc1 [16 carbons] |  |
| No | CCCCCCCCCCCCCCCCCCOC(=O)c1cccnc1 [18 carbons] |  |
|  | O=C(O)c1cccnc1 [niacin, nicotinic acid] | HDL-C fraction lowered by [2, 5]: 13%; LDL fraction lowered by [2, 5]: 45%; total cholesterol lowered by [2, 5]: 29%; triglycerides lowered by [2, 5]: 37%; total cholesterol lowered by [3]: 12% |
